The values below come from US20200277268A1, “PENTAFLUOROPHENYL SULFONAMIDE COMPOUNDS, COMPOSITIONS AND USES THEREOF” (DALRIADA THERAPEUTICS INC., priority 2017, published 2020).

Series [1] concerns healthy human lung cells (MRC9). Put plainly: CellTiter-Blue cell viability, MRC9. The format is cell-based. As to conditions: non-cancerous, 72 hours. The procedure: (§1) The anti-cancer efficacy of exemplary compounds of the application were assessed in vitro against different cancer cell lines. Cell viability was examined following treatment at various concentrations of inhibitor (0.097656-50 μM) using a CellTiter-Blue® cell viability assay. 1×10^4 cells/well were plated in 96-well assay plates in culture medium. All cells were grown in DMEM, IMDM and RPMI-1640 supplemented with 10% fetal bovine serum (FBS). In some instances, FBS was removed for periods ranging from 16-24 hours, and re-introduced with test compound addition. After 24 hrs, test compounds and vehicle controls were added to appropriate wells such that the final volume was 100 μl in each well. The cells were cultured for the desired test exposure period (72 hours) at 37° C. and 5% CO2. The assay plates were removed from 3° C. incubator and 20 μl/well of CellTiter-Blue® Reagent was added. The plates were incubated using standard cell culture conditions for 1-4 hours. Afterwards, the plates were shaken for 10 seconds and florescence was recorded at 560/590 nm using a Cytation 3 spectrophotometer. IC50 values were determined using non-linear regression analysis with GraphPad Prism 6.0 (GraphPad Software Inc.).
In general terms: Resazurin is reduced to fluorescent resorufin, in cell work by metabolically active cells.

The next series relates to BT428. Put plainly: Proliferation of patient derived GBM BTIC line BT428. As to conditions: 62.5, 125, 250 nM, four days. The format is cell-based. The procedure: (§2) Glioblastoma (GBM) tumor cells with stem-cell properties termed brain tumor initiating cells (BTICs,) are enriched using serum-free culture. Effects of select exemplary compounds were tested on cell proliferation in patient derived GBM BTIC lines: GBM8 and BT428. GBM BTICs were cultured in NeuroCult™ NS-A Proliferation Medium (STEMcell Technologies) supplemented with epidermal growth factor (20 ng/mL), basic fibroblast growth factor (10 ng/mL) and 2 ug/mL of Heparin. The cells were dissociated into single cells and viable cells sorted into 96 well plate at a density of 1000 cells/well. The cells were then treated with varying doses of selected compounds (250 nM, 125 nM, 62.5 nM) with three technical replicates per dilution. DMSO was used as control. Four days following the addition of compounds, the proliferative capacity of GBM BTICs was assessed using PrestoBlue Cell Viability reagent (Invitrogen).

Another series concerns MV4-11. Put plainly: CellTiter-Blue cell viability, MV4-11. As to conditions: Homo sapiens, MV4-11; AML cell line, 72 hours. It counts as cell-based. As to the method:
as §1

For a further series, the system named is MOLM13. Put plainly: CellTiter-Blue cell viability, MOLM13. It counts as cell-based. The following applies: Homo sapiens, MOLM-13; AML cell line, 72 hours. As to the method:
as §1

The test system of series [2] is primary human fibroblast cells (PHF). Put plainly: CellTiter-Blue cell viability, PHF. The format is cell-based. As to conditions: non-cancerous, 72 hours. The procedure: as §1
The next series deals with GBM8. Put plainly: Proliferation of patient derived GBM BTIC line GBM8. The format is cell-based. The following applies: 62.5, 125, 250 nM, four days. The procedure:
as §2

A further series can be described thus: in vitro. As to conditions: mouse, hepatocytes.

Procedure for in vitro: A stock of 100 μM test compound was prepared by diluting the 10 mM I-1 test compound in DMSO with a solution of 50% acetonitrile and 50% water. In a 96-well non-coated plate, 198 μL of hepatocytes was pipetted, and the plate was placed in the incubator on an orbital shaker to allow the hepatocytes to warm for 10 minutes. To this solution 2 μL of the 100 μM I-1 was added to start the reaction, and the plate was placed on an orbital shaker. […] The reaction solution was then vortexed for 10 minutes and centrifuged at 4,000 rpm for 30 minutes at 4° C. Next, 400 μL of the supernatant was transferred to one new 96-well plate, centrifuged at 4,000 rpm for 30 minutes at 4° C., and 100 μL of the supernatant was transferred to a new 96-well plate ensuring the pellet was not disturbed. 100 μL of ultrapure water was added to all samples for analysis by LC-MS/MS.
Injection volume was 10 μL.

On to `O=S(=O)(c1c(F)c(F)c(F)c(F)c1F)N(Cc1ncccc1C(F)(F)F)C1CC1` [Compound I-43, N-cyclopropyl-2,3,4,5,6-pentafluoro-N-((3-(trifluoromethyl)pyridin-2-yl)methyl)benzenesulfonamide], for which the IC50 in series [1] amounted to 8.4 µM; with MV4-11, 1.67 µM; in the series on MOLM13, 4.1 µM. In addition, the “effect on cell proliferation in BT428” value with BT428 was “show potency”.
Regarding `O=S(=O)(c1c(F)c(F)c(F)c(F)c1F)N(Cc1ncc(F)cc1F)C1CC1` [Compound I-37, N-cyclopropyl-N-((3,5-difluoropyridin-2-yl)methyl)-2,3,4,5,6-pentafluorobenzenesulfonamide], the IC50 in series [2] came to 8.7 µM; in series [1], 22 µM; in the series with MV4-11, 1.69 µM; in the series with MOLM13, 2.89 µM. Besides, the “effect on cell proliferation in GBM8” value in the series with GBM8 is given as “show potency”.
For `COc1ccc(NS(=O)(=O)c2c(F)c(F)c(F)c(F)c2F)cc1F` [Batabulin], the half-life at 1 μM in “in vitro” came out at 17.9 min.

The IC50 is the concentration that inhibits the measured activity by half. Low readings indicate inhibition by little substance, high ones a need for much substance. For orientation: half-life means how long it takes for the measured level to halve.
